Consider 41 molecules from patent US8741884B2, “Compounds for the treatment of hepatitis C” (priority 2010, dated 2014).

For the experiment, the system named is HCV pseudoparticles (genotype 1a HCV E1 and E2 envelope, H77C isolate). As to the kind of experiment: microbe, parasite or virus in culture. It is filed as cell-based.
[1] abbreviates: Hepatitis C virus, Huh-7, 48 h, class symbol, HCV pseudoparticles genotype 1a (H77C), Huh7 cells, luciferase 2 days after infection, average of duplicates.
The mark [2] stands for this setting: Hepatitis C virus, Huh-7, 48 h, numeric value, HCV pseudoparticles genotype 1a (H77C), Huh7 cells, luciferase 2 days after infection, average of duplicates.

pEC50: −log10 of the molar value. Like-named read-outs stand apart in the source and are kept apart here.

By pEC50 is commonly meant −log10 of the EC50, conventionally taken in molar units. Under setting [1], `O=C(NCC1(C(=O)O)CCNCC1)c1ccc2cc1OCCCCCCOc1ccc(cc1)CNc1nc(nc(OCC(F)(F)F)n1)N2` [Example 1504] had a pEC50 of 7.00 to 10.00. With `O=C1NCCCCCCNc2nc(nc(OCC(F)(F)F)n2)Nc2cccc1c2` [Example 1001], the pEC50 under setting [1] is 4.30 to 6.00. As to `CC(C)(C)OC(=O)N1CCCOc2ccc(cc2)CNc2nc(nc(OCC(F)(F)F)n2)Nc2ccc(C(=O)NCC3(CN4CCCC4)CC3)c(c2)OCCC1` [Example 3003], the pEC50 under setting [1] is 7.00 to 10.00. Still for that read-out and setting: next, `FC(F)(F)COc1nc2nc(n1)Nc1cccc(c1)OCC=CCOc1ccc(cc1)CN2` [Example 2001]: 7.00 to 10.00; `CC(C)(C)OC(=O)N1CCC(CNC(=O)c2ccc3cc2OCCCCCCOc2ccc(cc2)CNc2nc(nc(OCC(F)(F)F)n2)N3)C1` (stereo not shown) [Example 1305]: 7.00 to 10.00. Same read-out and setting: next, `COC(=O)CCNC(=O)c1ccc2cc1OCCCCCCCCOc1ccc(cc1)CNc1nc(nc(OCC(F)(F)F)n1)N2` [Example 1017]: 6.00 to 7.00; `COC(=O)CCNC(=O)c1ccc2cc1OCCCCCCOc1ccc(cc1)CNc1nc(nc(OCC(F)(F)F)n1)N2` [Example 1303]: 6.00 to 7.00; `CCCN1CCCOc2ccc(cc2)CNc2nc(nc(OCC(F)(F)F)n2)Nc2ccc(C(=O)NCC3(CN4CCCC4)CC3)c(c2)OCCC1` [Example 3012]: 7.00 to 10.00.

Regarding `COC(=O)[C@@H](CNC(=O)OC(C)(C)C)NC(=O)c1ccc2cc1OCCCCCCOc1ccc(cc1)CNc1nc(nc(OCC(F)(F)F)n1)N2` [Example 1309], the pEC50 under setting [1] is 6.00 to 7.00. On to `CC(=O)NC[C@H](NC(=O)c1ccc2cc1OCCCCCCOc1ccc(cc1)CNc1nc(nc(OCC(F)(F)F)n1)N2)C(=O)O` [Example 1711], for which the pEC50 under setting [1] was 7.00 to 10.00. Same read-out and setting: for `CC(C)(C)OC(=O)N[C@@H](CCNC(=O)c1ccc2cc1OCCCCCCOc1ccc(cc1)CNc1nc(nc(OCC(F)(F)F)n1)N2)C(=O)O` [Example 1411] the value was 7.00 to 10.00; for `CN(C)CC(C)(C)CNC(=O)c1ccc2cc1OCCOCCOCCOc1ccc(cc1)CNc1nc(nc(OCC(F)(F)F)n1)N2` [Example 1011], 7.00 to 10.00; for `CC(C)OC(=O)N1CCCOc2ccc(cc2)CNc2nc(nc(OCC(F)(F)F)n2)Nc2ccc(C(=O)NCC3(CN4CCCC4)CC3)c(c2)OCCC1` [Example 3006], 7.00 to 10.00. Still for that read-out and setting: for `CC(C)C(=O)N1CCCCOc2cc(ccc2C(=O)NCC2(CN3CCCC3)CC2)Nc2nc(nc(OCC(F)(F)F)n2)NCc2ccc(cc2)OCCC1` [Example 3023] the value was 7.00 to 10.00. For the molecule `CC(C)(C)OC(=O)NC[C@H](NC(=O)c1ccc2cc1OCCOCCOCCOc1ccc(cc1)CNc1nc(nc(OCC(F)(F)F)n1)N2)C(=O)O` [Example 1608], the pEC50 is 7.00 to 10.00 under setting [1] and 7.25 under setting [2]. Under setting [1], `O=C(NC1CCCNC1)c1ccc2cc1OCCCCCCCCOc1ccc(cc1)CNc1nc(nc(OCC(F)(F)F)n1)N2` (stereo not shown) [Example 1013] showed a pEC50 of 7.00 to 10.00. In the case of `CC(C)(C)OC(=O)NC1(C(=O)O)CCN(C(=O)c2ccc3cc2OCCCCCCCCOc2ccc(cc2)CNc2nc(nc(OCC(F)(F)F)n2)N3)C1` (stereo not shown) [Example 1018], the pEC50 is, setting by setting: under setting [1], 4.30 to 6.00; under setting [2], 5.25. As for `O=C(NCC1CCNC1)c1ccc2cc1OCCCCCCOc1ccc(cc1)CNc1nc(nc(OCC(F)(F)F)n1)N2` (stereo not shown) [Example 1501], under setting [1], the pEC50 is 7.00 to 10.00. Still for that read-out and setting: for `O=C(NCC1(CN2CCCC2)CC1)c1ccc2cc1OCCCCNCCCOc1ccc(cc1)CNc1nc(nc(OCC(F)(F)F)n1)N2` [Example 3017] the value was 7.00 to 10.00; for `COC(=O)[C@H](CNC(=O)OC(C)(C)C)NC(=O)c1ccc2cc1OCCOCCOCCOc1ccc(cc1)CNc1nc(nc(OCC(F)(F)F)n1)N2` [Example 1604], 7.00 to 10.00; for `CC(C)(C)OC(=O)N1CCCOc2cccc(c2)CNc2nc(nc(OCC(F)(F)F)n2)Nc2ccc(C(=O)NCC3(CN4CCCC4)CC3)c(c2)OCCC1` [Example 3024], 6.00 to 7.00. Molecule `CC(C)(C)OC(=O)N1CCC(NC(=O)c2ccc3cc2OCCCCCCOc2ccc(cc2)CNc2nc(nc(OCC(F)(F)F)n2)N3)(C(=O)O)CC1` [Example 1410] showed a pEC50 under setting [1] of 6.00 to 7.00. Still for that read-out and setting: for `COC(=O)c1ccc2cc1OCCCCNCCCOc1ccc(cc1)CNc1nc(nc(OCC(F)(F)F)n1)N2` [Example 3015] the value was 7.00 to 10.00.

As to `N=C(N)CNC(=O)c1ccc2cc1OCCCCCCCCOc1ccc(cc1)CNc1nc(nc(OCC(F)(F)F)n1)N2` [Example 1107], the pEC50 under setting [1] is 7.00 to 10.00.

With `CC(C)(C)OC(=O)N1CCCC1CNC(=O)c1ccc2cc1OCCCCCCOc1ccc(cc1)CNc1nc(nc(OCC(F)(F)F)n1)N2` (stereo not shown) [Example 1306], under setting [1], the pEC50 was 7.00 to 10.00.

As for `O=C1COCC(=O)NCc2cccc(c2)Nc2nc(nc(OCC(F)(F)F)n2)NCCN1` [Example 1015], the pEC50 is 4.30 to 6.00 under setting [1] and 5.51 under setting [2]. In the case of `CN(C)CC(C)(C)CNC(=O)c1ccc2cc1OCCCCCCOc1ccccc1CNc1nc(nc(OCC(F)(F)F)n1)N2` [Example 1806], under setting [1], the pEC50 is 6.00 to 7.00. On to `COC(=O)c1ccc2cc1OCCOCCOCCOc1ccc(cc1)CNc1nc(nc(OCC(F)(F)F)n1)N2` [Example 1007], for which the pEC50 by setting is: under setting [1], 4.30 to 6.00; under setting [2], 5.01. `FC(F)(F)COc1nc2nc(n1)Nc1cccc(c1)OCCCCOc1cccc(c1)N2` [Example 2004] showed a pEC50 under setting [1] of 7.00 to 10.00. Turning to `FC(F)(F)COc1nc2nc(n1)NC1(CC1)c1ccc(cc1)OCCCCOc1cccc(c1)N2` [Example 2009], the pEC50 by setting is: under setting [1], 7.00 to 10.00; under setting [2], 7.74. Take `CC(C)(C)OC(=O)N1CCCC(C(NC(=O)c2ccc3cc2OCCCCCCOc2ccc(cc2)CNc2nc(nc(OCC(F)(F)F)n2)N3)C(=O)O)C1` (stereo not shown) [Example 1551]: the pEC50 under setting [1] was 7.00 to 10.00. Same read-out and setting: next, `O=C(NC(Cc1ccccc1)C(=O)O)c1ccc2cc1OCCCCCCOc1ccc(cc1)CNc1nc(nc(OCC(F)(F)F)n1)N2` (stereo not shown) [Example 1405]: 7.00 to 10.00; `COC(=O)C(NC(=O)c1ccc2cc1OCCCCCCCCOc1ccc(cc1)CNc1nc(nc(OCC(F)(F)F)n1)N2)C1CCCN(C(=O)OC(C)(C)C)C1` (stereo not shown) [Example 1106]: 7.00 to 10.00. Take `COC(=O)c1ccc2cc1OCCCN(C(=O)OC(C)(C)C)CCCOc1ccc(cc1)CNc1nc(nc(OCC(F)(F)F)n1)N2` [Example 3001]: under setting [1], the pEC50 is 7.00 to 10.00. Still for that read-out and setting: for `O=C1NCCNc2nc(nc(OCC(F)(F)F)n2)Nc2cccc(c2)CNC(=O)OCCO1` [Example 1014] the value was 4.30 to 6.00; for `O=C(NC(C(=O)O)C1CCCNC1)c1ccc2cc1OCCCCCCOc1ccc(cc1)CNc1nc(nc(OCC(F)(F)F)n1)N2` (stereo not shown) [Example 1552], 7.00 to 10.00. Still for that read-out and setting: next, `COc1nc2nc(n1)OCc1cccc(c1)Nc1nc(nc(OCC(F)(F)F)n1)NCCN2` [Example 1002]: 4.30 to 6.00; `CN(C)CC(C)(C)CNC(=O)c1ccc2cc1OCCCCCOc1ccc(cc1)CNc1nc(nc(OCC(F)(F)F)n1)N2` [Example 1009]: 7.00 to 10.00. On the same count and under the same terms, next, `O=C(NCC1(CN2CCCC2)CC1)c1ccc2cc1OCC=CCOc1ccc(cc1)CNc1nc(nc(OCC(F)(F)F)n1)N2` [Example 2006]: 7.00 to 10.00.

Consider `O=C(NC(C(=O)O)C1CCNC1)c1ccc2cc1OCCCCCCOc1ccc(cc1)CNc1nc(nc(OCC(F)(F)F)n1)N2` (stereo not shown) [Example 1553], for which the pEC50 (read-out: EC50) is 7.00 to 10.00. As to `CCOC(=O)[C@@H]1CN(C(=O)OC(C)(C)C)C[C@H]1NC(=O)c1ccc2cc1OCCCCCCOc1ccc(cc1)CNc1nc(nc(OCC(F)(F)F)n1)N2` [Example 1308], the pEC50 under setting [1] is 7.00 to 10.00.
